Values quoted from earlier work in article PMC5314429, “Enhancing PET Signal at Target Tissue in Vivo: Dendritic and Multimeric Tris(hydroxypyridinone) Conjugates for Molecular Imaging of αvβ3 Integrin Expression with Gallium-68” (Bioconjugate Chemistry, 2016).

Design: method as in PMID 16821777

log K1 for Fe^3+: 32.52 | pFe^3+ (pH 7.4, [Fe^3+] = 10^–6 M, [Ligand] = 10^–5 M): 28.47
SMILES: CC(=O)NC(CCC(=O)NCc1c(O)c(=O)cc(C)n1C)(CCC(=O)NCc1c(O)c(=O)cc(C)n1C)CCC(=O)NCc1c(O)c(=O)cc(C)n1C [THP-Ac]
